Results from US20240025863A1, “SOS1 PROTEIN DEGRADERS, PHARMACEUTICAL COMPOSITIONS THEREOF, AND THEIR THERAPEUTIC APPLICATIONS” (BioTheryX, Inc., priority 2020, published 2024).

Columns and labels:
Format in all cases: cell-based
H23 cells = experiment: Cell viability assay (CellTiter-Glo), H23 cells; conditions: Homo sapiens, NCI-H23, 72 h; H23 cells, 3 days incubation, CellTiter-Glo luminescence; read-out: Inhibition of Cancerous Cells IC50 H23
Experimental: (§1) H358, H23, SW48, and AsPC-1 cells were cultured in RPMI 1640 media supplemented with 10% fetal bovine serum, streptomycin, and penicillin. Lovo and SW480 cells were cultured in DMEM media supplemented with 10% fetal bovine serum, streptomycin, and penicillin. The cell lines were plated in their respective medium supplemented with 2.5% fetal bovine serum, streptomycin, and penicillin. All cell lines were plated in white walled 96-well plates at 2,000 cells/well or 384-well plates at 500 cells/well, except Lovo, which were plated at 4,000 or 1,000 cells/well, respectively. The cells were incubated in DMSO (control) or a compound for 3 days at 37° C. under 5% CO2. A CELLTITER-GLO® reagent (100 μL) was then added to each well. After a 10 min incubation with shaking, luminescence was measured using an ENVISION® multimode plate reader.

H358 cells (G12C) = experiment: Cell viability assay (CellTiter-Glo), H358 cells; conditions: Homo sapiens, NCI-H358, 72 h; H358 cells, 3 days incubation, CellTiter-Glo luminescence; read-out: Inhibition of Cancerous Cells IC50 H358 (G12C)
Summary of the method: (§2)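 Viability is measured by CellTiter-Glo luminescence following a 3-day compound incubation at 37 °C in medium with 2.5% FBS.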

AsPC-1 cells (G12D) = experiment: Cell viability assay (CellTiter-Glo), AsPC-1 cells; conditions: Homo sapiens, ASPC1, 72 h, 3 days incubation, CellTiter-Glo luminescence, read-out: Inhibition of Cancerous Cells IC50 AsPC-1 (G12D)
Experimental: as §1

SW480 cells (G12V) = experiment: Cell viability assay (CellTiter-Glo), SW480 cells; conditions: Homo sapiens, 72 h; SW480 cells, 3 days incubation, CellTiter-Glo luminescence; read-out: Inhibition of Cancerous Cells IC50 SW480 (G12V)
Summary of the method: as §2

SW48 cells (wt) = experiment: Cell viability assay (CellTiter-Glo), SW48 cells; conditions: Homo sapiens, 72 h; SW48 cells, 3 days incubation, CellTiter-Glo luminescence; read-out: Inhibition of Cancerous Cells IC50 SW48 (wt)
Summary of the method: as §2

Lovo cells (G13D) = experiment: Cell viability assay (CellTiter-Glo), Lovo cells; conditions: Homo sapiens, 72 h; Lovo cells, 3 days incubation, CellTiter-Glo luminescence; read-out: Inhibition of Cancerous Cells IC50 Lovo (G13D)
Summary of the method: as §2

SMILES	IC50 (H358 cells (G12C))	IC50 (AsPC-1 cells (G12D))	IC50 (SW480 cells (G12V))	IC50 (SW48 cells (wt))	IC50 (Lovo cells (G13D))	IC50 (H23 cells)
COc1cc2c(N[C@H](C)c3cccc(Br)c3)nc(C)nc2cc1OCCOCCOCCOCCNc1cccc2c1C(=O)N(C1CCC(=O)NC1=O)C2=O (stereo partly drawn) [Compound A4, 4-((2-(2-(2-(2-((4-(((R)-1-(3-bromophenyl)ethyl)amino)-6-methoxy-2-methylquinazolin-7-yl)oxy)ethoxy)ethoxy)ethoxy)ethyl)amino)-2-(2,6-dioxopiperidin-3-yl)isoindoline-1,3-dione]	7200 nM					9000 nM
COc1cc2c(N[C@H](C)c3cccc(Br)c3)nc(C)nc2cc1OCCCCCCCCCN1CCC(c2cc(F)cc3c2CN(C2CCC(=O)NC2=O)C3=O)CC1 (stereo partly drawn) [Compound A12, 3-(4-(1-(9-((4-(((R)-1-(3-Bromophenyl)ethyl)amino)-6-methoxy-2-methyl-quinazolin-7-yl)oxy)nonyl)piperidin-4-yl)-6-fluoro-1-oxoisoindolin-2-yl)piperidine-2,6-dione]	1400 nM					1200 nM
CN[C@@H](C)C(=O)N[C@H](C(=O)N1CCC[C@H]1c1nc(C(=O)c2cccc(OCCCCCCCCCCOc3cc4nc(C)nc(N[C@H](C)c5cccc(Br)c5)c4cc3OC)c2)cs1)C1CCCCC1 [Compound B3, (S)—N—((S)-2-((S)-2-(4-(3-((10-((4-(((R)-1-(3-Bromophenyl)ethyl)amino)-6-methoxy-2-methylquinazolin-7-yl)oxy)decyl)oxy)benzoyl)thiazol-2-yl)pyrrolidin-1-yl)-1-cyclohexyl-2-oxoethyl)-2-(methylamino)propanamide]	2200 nM	5000 nM	2300 nM	4700 nM	1400 nM	
CN[C@@H](C)C(=O)N[C@H](C(=O)N1CCC[C@H]1c1nc(C(=O)c2cccc(OCCCCCCCCCCCCOc3cc4nc(C)nc(N[C@H](C)c5cccc(Br)c5)c4cc3OC)c2)cs1)C1CCCCC1 [Compound B4, (S)—N—((S)-2-((S)-2-(4-(3-((12-((4-(((R)-1-(3-Bromophenyl)ethyl)amino)-6-methoxy-2-methylquinazolin-7-yl)oxy)dodecyl)oxy)benzoyl)thiazol-2-yl)pyrrolidin-1-yl)-1-cyclohexyl-2-oxoethyl)-2-(methylamino)propanamide]	7600 nM	> 10000 nM	> 10000 nM	> 10000 nM	4000 nM	
COc1cc2c(N[C@H](C)c3cccc(Br)c3)nc(C)nc2cc1OCCCCCCCCNC(=O)[C@H](CC(C)C)NC(=O)[C@@H](O)[C@H](N)Cc1ccccc1 [Compound B7, (S)-2-((2S,3R)-3-Amino-2-hydroxy-4-phenylbutanamido)-N-(8-((4-(((R)-1-(3-bromophenyl)ethyl)amino)-6-methoxy-2-methylquinazolin-7-yl)oxy)octyl)-4-methylpentanamide]	1300 nM	1200 nM	610 nM	920 nM	680 nM	
COc1cc2c(N[C@H](C)c3cccc(Br)c3)nc(C)nc2cc1OCCCCCCCCCCCCNC(=O)[C@H](CC(C)C)NC(=O)[C@@H](O)[C@H](N)Cc1ccccc1 [Compound B9, (S)-2-((2S,3R)-3-Amino-2-hydroxy-4-phenylbutanamido)-N-(12-((4-(((R)-1-(3-bromophenyl)ethyl)amino)-6-methoxy-2-methylquinazolin-7-yl)oxy)dodecyl)-4-methylpentanamide]	1200 nM	2700 nM	960 nM	1400 nM	730 nM	
CN[C@@H](C)C(=O)N[C@H](C(=O)N1C[C@@H](NC(=O)CCCCCCCCCCCCOc2cc3nc(C)nc(N[C@H](C)c4cccc(Br)c4)c3cc2OC)C[C@H]1C(=O)N[C@@H]1CCCc2ccccc21)C1CCCCC1 [Compound B10, (2S,4S)-4-(13-((4-(((R)-1-(3-Bromophenyl)ethyl)amino)-6-methoxy-2-methyl-quinazolin-7-yl)oxy)tridecanamido)-1-((S)-2-cyclohexyl-2-((S)-2-(methylamino)propanamido)-acetyl)-N—((R)-1,2,3,4-tetrahydronaphthalen-1-yl)pyrrolidine-2-carboxamide]	1600 nM	1500 nM	720 nM	1300 nM	670 nM	
COc1cc2c(N[C@H](C)c3cccc(Br)c3)nc(C)nc2cc1OCCCCCCCOc1cc(-c2scnc2C)ccc1CNC(=O)[C@@H]1C[C@@H](O)CN1C(=O)[C@@H](NC(C)=O)C(C)(C)C [Compound D11, (2S,4R)-1-((S)-2-Acetamido-3,3-dimethylbutanoyl)-N-(2-((7-((4-(((R)-1-(3-bromophenyl)ethyl)amino)-6-methoxy-2-methylquinazolin-7-yl)oxy)heptyl)oxy)-4-(4-methylthiazol-5-yl)benzyl)-4-hydroxypyrrolidine-2-carboxamide]	1600 nM	> 10000 nM	1200 nM	5900 nM	2600 nM	
COc1cc2c(N[C@H](C)c3cccc(Br)c3)nc(C)nc2cc1OCCCCCCCCCCCCCOc1cc(-c2scnc2C)ccc1CNC(=O)[C@@H]1C[C@@H](O)CN1C(=O)[C@@H](NC(C)=O)C(C)(C)C [Compound D14, (2S,4R)-1-((S)-2-Acetamido-3,3-dimethylbutanoyl)-N-(2-((13-((4-(((R)-1-(3-bromophenyl)ethyl)amino)-6-methoxy-2-methylquinazolin-7-yl)oxy)tridecyl)oxy)-4-(4-methyl-thiazol-5-yl)benzyl)-4-hydroxypyrrolidine-2-carboxamide]	> 10000 nM	> 10000 nM	3300 nM	> 10000 nM	640 nM	

Now those with a lower IC50 (H358 cells (G12C)), led by results:

IC50 (H358 cells (G12C))	IC50 (AsPC-1 cells (G12D))	IC50 (SW480 cells (G12V))	IC50 (SW48 cells (wt))	IC50 (Lovo cells (G13D))	SMILES	IC50 (H23 cells)
980 nM	1200 nM	500 nM	980 nM	480 nM	CN[C@@H](C)C(=O)N[C@H](C(=O)N1CCC[C@H]1c1nc(C(=O)c2cccc(OCCCCCCCCOc3cc4nc(C)nc(N[C@H](C)c5cccc(Br)c5)c4cc3OC)c2)cs1)C1CCCCC1 [Compound B2, (S)—N—((S)-2-((S)-2-(4-(3-((8-((4-(((R)-1-(3-Bromophenyl)ethyl)amino)-6-methoxy-2-methylquinazolin-7-yl)oxy)octyl)oxy)benzoyl)thiazol-2-yl)pyrrolidin-1-yl)-1-cyclohexyl-2-oxoethyl)-2-(methylamino)propanamide]	
650 nM	1500 nM	440 nM	750 nM	770 nM	CN[C@@H](C)C(=O)N[C@H](C(=O)N1C[C@@H](NC(=O)CCCCCCOc2cc3nc(C)nc(N[C@H](C)c4cccc(Br)c4)c3cc2OC)C[C@H]1C(=O)N[C@@H]1CCCc2ccccc21)C1CCCCC1 [Compound B5, (2S,4S)-4-(7-((4-(((R)-1-(3-bromophenyl)ethyl)amino)-6-methoxy-2-methyl-quinazolin-7-yl)oxy)heptanamido)-1-((S)-2-cyclohexyl-2-((S)-2-(methylamino)propanamido)-acetyl)-N—((R)-1,2,3,4-tetrahydronaphthalen-1-yl)pyrrolidine-2-carboxamide]	
530 nM	960 nM	360 nM	530 nM	390 nM	CN[C@@H](C)C(=O)N[C@H](C(=O)N1C[C@@H](NC(=O)CCCCCCCCCCOc2cc3nc(C)nc(N[C@H](C)c4cccc(Br)c4)c3cc2OC)C[C@H]1C(=O)N[C@@H]1CCCc2ccccc21)C1CCCCC1 [Compound B11, (2S,4S)-4-(11-((4-(((R)-1-(3-Bromophenyl)ethyl)amino)-6-methoxy-2-methyl-quinazolin-7-yl)oxy)undecanamido)-1-((S)-2-cyclohexyl-2-((S)-2-(methylamino)propanamido)-acetyl)-N—((R)-1,2,3,4-tetrahydronaphthalen-1-yl)pyrrolidine-2-carboxamide]	
1100 nM	2700 nM	450 nM	460 nM	800 nM	CN[C@@H](C)C(=O)N[C@H](C(=O)N1C[C@@H](NC(=O)CCCCCCCCOc2cc3nc(C)nc(N[C@H](C)c4cccc(Br)c4)c3cc2OC)C[C@H]1C(=O)N[C@@H]1CCCc2ccccc21)C1CCCCC1 [Compound B12, (2S,4S)-4-(9-((4-(((R)-1-(3-Bromophenyl)ethyl)amino)-6-methoxy-2-methyl-quinazolin-7-yl)oxy)nonanamido)-1-((S)-2-cyclohexyl-2-((S)-2-(methylamino)propanamido)-acetyl)-N—((R)-1,2,3,4-tetrahydronaphthalen-1-yl)pyrrolidine-2-carboxamide]	
